# Reference: PubChem BioAssay AID2060615 (Molecular Pharmacology Branch, DTP, NCI, 2025)
# System: 496974-208-R-J2-PDC complex spheroids, growth % test/control
# Assay: Anticancer human tumor 496974-208-R-J2-PDC patient-derived pancreatic carcinoma cell line growth inhibition [CLK]
# Conditions: for IC50: curve of first compound; for viability, T/C: stronger effect = lower value
# Procedure, shortened: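 Patient-derived tumor cells grown as complex spheroids with HUVEC endothelial cells and mesenchymal stem cells, treated with drug combinations. Concentrations descend in half-log steps from near clinical Cmax, or from 10 microM if Cmax unknown.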
# [1] = second compound 0.0316 µM, first compound 0.0316 µM
# [2] = second compound 0.0316 µM, first compound 0.1 µM
# [3] = second compound 0.0316 µM, first compound 0.316 µM
# [4] = second compound 0.0316 µM, first compound 1 µM
# [5] = second compound 0.0316 µM, first compound 3.16 µM
# [6] = second compound 0.0316 µM, first compound 10 µM
# [7] = second compound 0.1 µM, first compound 0.0316 µM
# [8] = second compound 0.1 µM, first compound 0.1 µM
# [9] = second compound 0.1 µM, first compound 0.316 µM
# [10] = second compound 0.1 µM, first compound 1 µM
# [11] = second compound 0.1 µM, first compound 3.16 µM
# [12] = second compound 0.1 µM, first compound 10 µM
# [13] = second compound 0.316 µM, first compound 0.0316 µM
# [14] = second compound 0.316 µM, first compound 0.1 µM
# [15] = second compound 0.316 µM, first compound 0.316 µM
# [16] = second compound 0.316 µM, first compound 1 µM
# [17] = second compound 0.316 µM, first compound 3.16 µM
# [18] = second compound 0.316 µM, first compound 10 µM
# [19] = second compound 1 µM, first compound 0.0316 µM
# [20] = second compound 1 µM, first compound 0.1 µM
# [21] = second compound 1 µM, first compound 0.316 µM
# [22] = second compound 1 µM, first compound 1 µM
# [23] = second compound 1 µM, first compound 3.16 µM
# [24] = second compound 1 µM, first compound 10 µM
# [25] = second compound 3.16 µM, first compound 0.0316 µM
# [26] = second compound 3.16 µM, first compound 0.1 µM
# [27] = second compound 3.16 µM, first compound 0.316 µM
# [28] = second compound 3.16 µM, first compound 1 µM
# [29] = second compound 3.16 µM, first compound 3.16 µM
# [30] = second compound 3.16 µM, first compound 10 µM
# [31] = second compound 10 µM, first compound 0.0316 µM
# [32] = second compound 10 µM, first compound 0.1 µM
# [33] = second compound 10 µM, first compound 0.316 µM
# [34] = second compound 10 µM, first compound 1 µM
# [35] = second compound 10 µM, first compound 3.16 µM
# [36] = second compound 10 µM, first compound 10 µM
# 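Note: spheroids exposed to the drugs for 7 days before readout.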
# 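Throughout, for viability, T/C: 100% = DMSO vehicle control wells.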
smiles,measurement,setting,value
CC(=O)O[C@H]1C(=O)[C@@]2(C)[C@H]([C@H](OC(=O)c3ccccc3)[C@]3(O)C[C@H](OC(=O)[C@H](O)[C@@H](NC(=O)c4ccccc4)c4ccccc4)C(C)=C1C3(C)C)[C@]1(OC(C)=O)CO[C@@H]1C[C@@H]2O + CN1CCN(c2cc(C(=O)Nc3cc4cc(-c5cnn(C)c5)ccc4cn3)ccn2)CC1,IC50,second compound 0.0316 µM,< 0.0316 µM
same,IC50,second compound 0.1 µM,< 0.0316 µM
same,IC50,second compound 0.316 µM,< 0.0316 µM
same,IC50,second compound 1 µM,< 0.0316 µM
same,IC50,second compound 3.16 µM,< 0.0316 µM
same,IC50,second compound 10 µM,< 0.0316 µM
same,"viability, T/C",[1],35.9%
same,"viability, T/C",[2],29.4%
same,"viability, T/C",[3],33.5%
same,"viability, T/C",[4],29.2%
same,"viability, T/C",[5],31.5%
same,"viability, T/C",[6],27.9%
same,"viability, T/C",[7],29.4%
same,"viability, T/C",[8],25.9%
same,"viability, T/C",[9],27.7%
same,"viability, T/C",[10],29.5%
same,"viability, T/C",[11],24.8%
same,"viability, T/C",[12],23.7%
same,"viability, T/C",[13],5.33%
same,"viability, T/C",[14],4.57%
same,"viability, T/C",[15],5.74%
same,"viability, T/C",[16],4.55%
same,"viability, T/C",[17],5.22%
same,"viability, T/C",[18],4.68%
same,"viability, T/C",[19],0.41%
same,"viability, T/C",[20],0.53%
same,"viability, T/C",[21],0.5%
same,"viability, T/C",[22],0.41%
same,"viability, T/C",[23],0.36%
same,"viability, T/C",[24],0.37%
same,"viability, T/C",[25],0.58%
same,"viability, T/C",[26],0.77%
same,"viability, T/C",[27],2.07%
same,"viability, T/C",[28],0.54%
same,"viability, T/C",[29],0.58%
same,"viability, T/C",[30],0.34%
same,"viability, T/C",[31],0.23%
same,"viability, T/C",[32],0.29%
same,"viability, T/C",[33],0.24%
same,"viability, T/C",[34],0.25%
same,"viability, T/C",[35],2.61%
same,"viability, T/C",[36],0.28%
CCc1c2c(nc3ccc(O)cc13)-c1cc3c(c(=O)n1C2)COC(=O)[C@]3(O)CC + CN1CCN(c2cc(C(=O)Nc3cc4cc(-c5cnn(C)c5)ccc4cn3)ccn2)CC1,IC50,second compound 0.0316 µM,0.00779 µM
same,IC50,second compound 0.1 µM,< 0.00316 µM
same,IC50,second compound 0.316 µM,< 0.00316 µM
same,IC50,second compound 1 µM,< 0.00316 µM
same,IC50,second compound 3.16 µM,< 0.00316 µM
same,IC50,second compound 10 µM,< 0.00316 µM
same,"viability, T/C","second compound 0.0316 µM, first compound 0.00316 µM",62.2%
same,"viability, T/C","second compound 0.0316 µM, first compound 0.01 µM",47.5%
same,"viability, T/C",[1],26.7%
same,"viability, T/C",[2],14.5%
same,"viability, T/C",[3],6.46%
same,"viability, T/C",[4],1.65%
same,"viability, T/C","second compound 0.1 µM, first compound 0.00316 µM",49.3%
same,"viability, T/C","second compound 0.1 µM, first compound 0.01 µM",38.7%
same,"viability, T/C",[7],23.3%
same,"viability, T/C",[8],10.7%
same,"viability, T/C",[9],3.35%
same,"viability, T/C",[10],0.91%
same,"viability, T/C","second compound 0.316 µM, first compound 0.00316 µM",6.81%
same,"viability, T/C","second compound 0.316 µM, first compound 0.01 µM",5.74%
same,"viability, T/C",[13],3.64%
same,"viability, T/C",[14],2%
same,"viability, T/C",[15],0.48%
same,"viability, T/C",[16],1.92%
same,"viability, T/C","second compound 1 µM, first compound 0.00316 µM",0.35%
same,"viability, T/C","second compound 1 µM, first compound 0.01 µM",0.69%
same,"viability, T/C",[19],3.07%
same,"viability, T/C",[20],0.44%
same,"viability, T/C",[21],0.26%
same,"viability, T/C",[22],1.23%
same,"viability, T/C","second compound 3.16 µM, first compound 0.00316 µM",0.46%
same,"viability, T/C","second compound 3.16 µM, first compound 0.01 µM",0.62%
same,"viability, T/C",[25],1.9%
same,"viability, T/C",[26],0.34%
same,"viability, T/C",[27],0.73%
same,"viability, T/C",[28],0.29%
same,"viability, T/C","second compound 10 µM, first compound 0.00316 µM",0.14%
same,"viability, T/C","second compound 10 µM, first compound 0.01 µM",0.25%
same,"viability, T/C",[31],1.21%
same,"viability, T/C",[32],0.21%
same,"viability, T/C",[33],0.65%
same,"viability, T/C",[34],3.41%
Nc1ccn(C2OC(CO)C(O)C2(F)F)c(=O)n1 (stereo not drawn) + CN1CCN(c2cc(C(=O)Nc3cc4cc(-c5cnn(C)c5)ccc4cn3)ccn2)CC1,IC50,second compound 0.0316 µM,0.959 µM
same,IC50,second compound 0.1 µM,0.259 µM
same,IC50,second compound 0.316 µM,< 0.0316 µM
same,IC50,second compound 1 µM,< 0.0316 µM
same,IC50,second compound 3.16 µM,< 0.0316 µM
same,IC50,second compound 10 µM,< 0.0316 µM
same,"viability, T/C",[1],90.8%
same,"viability, T/C",[2],76.9%
same,"viability, T/C",[3],62.3%
same,"viability, T/C",[4],44%
same,"viability, T/C",[5],48.2%
same,"viability, T/C",[6],50%
same,"viability, T/C",[7],76.3%
same,"viability, T/C",[8],57.8%
same,"viability, T/C",[9],50.3%
same,"viability, T/C",[10],40.6%
same,"viability, T/C",[11],38.6%
same,"viability, T/C",[12],38.5%
same,"viability, T/C",[13],5.11%
same,"viability, T/C",[14],5.63%
same,"viability, T/C",[15],6.71%
same,"viability, T/C",[16],5.91%
same,"viability, T/C",[17],5.91%
same,"viability, T/C",[18],4.9%
same,"viability, T/C",[19],0.42%
same,"viability, T/C",[20],0.5%
same,"viability, T/C",[21],1.35%
same,"viability, T/C",[22],0.4%
same,"viability, T/C",[23],2.61%
same,"viability, T/C",[24],0.41%
same,"viability, T/C",[25],0.53%
same,"viability, T/C",[26],0.7%
same,"viability, T/C",[27],0.57%
same,"viability, T/C",[28],0.47%
same,"viability, T/C",[29],0.44%
same,"viability, T/C",[30],1.78%
same,"viability, T/C",[31],0.28%
same,"viability, T/C",[32],1.23%
same,"viability, T/C",[33],1.72%
same,"viability, T/C",[34],0.25%
same,"viability, T/C",[35],2.65%
same,"viability, T/C",[36],0.29%
O=c1[nH]cc(F)c(=O)[nH]1 + CN1CCN(c2cc(C(=O)Nc3cc4cc(-c5cnn(C)c5)ccc4cn3)ccn2)CC1,IC50,second compound 0.0316 µM,5.87 µM
same,IC50,second compound 0.1 µM,4.19 µM
same,IC50,second compound 0.316 µM,< 0.0316 µM
same,IC50,second compound 1 µM,< 0.0316 µM
same,IC50,second compound 3.16 µM,< 0.0316 µM
same,IC50,second compound 10 µM,< 0.0316 µM
same,"viability, T/C",[1],108%
same,"viability, T/C",[2],99.2%
same,"viability, T/C",[3],99.3%
same,"viability, T/C",[4],76.8%
same,"viability, T/C",[5],60.1%
same,"viability, T/C",[6],42%
same,"viability, T/C",[7],83.5%
same,"viability, T/C",[8],83.7%
same,"viability, T/C",[9],76.3%
same,"viability, T/C",[10],68.1%
same,"viability, T/C",[11],54.2%
same,"viability, T/C",[12],37.4%
same,"viability, T/C",[13],7.23%
same,"viability, T/C",[14],6.68%
same,"viability, T/C",[15],5.78%
same,"viability, T/C",[16],6.41%
same,"viability, T/C",[17],6.09%
same,"viability, T/C",[18],6.36%
same,"viability, T/C",[19],0.41%
same,"viability, T/C",[20],0.51%
same,"viability, T/C",[21],0.5%
same,"viability, T/C",[22],0.43%
same,"viability, T/C",[23],0.32%
same,"viability, T/C",[24],0.55%
same,"viability, T/C",[25],0.44%
same,"viability, T/C",[26],0.46%
same,"viability, T/C",[27],0.41%
same,"viability, T/C",[28],0.57%
same,"viability, T/C",[29],0.41%
same,"viability, T/C",[30],2.84%
same,"viability, T/C",[31],0.24%
same,"viability, T/C",[32],0.41%
same,"viability, T/C",[33],0.35%
same,"viability, T/C",[34],0.27%
same,"viability, T/C",[35],1.4%
same,"viability, T/C",[36],1.8%
